# Assay results from US7402606B2, “Derivatives of 1-(oxoaminoacetyl) pentylcarbamate as cathepsin K inhibitors for the treatment of bone loss” (SmithKline Beecham Corporation, priority 2002, dated 2008).
# Assays:
# Format in all cases: biochemical
# [1] = biological target: human cathepsin B (Homo sapiens, UniProt P07858); test: Cathepsin B inhibition assay, enzyme from human liver tissue, Cbz-Phe-Arg-AMC; settings: Table 2, human cathepsin B; read-out: h Cat B IC50
# Method: (§1) All assays for cathepsin K were carried out with human and rat recombinant enzyme. Assays for cathepsins S ? V were also carried out with human recombinant enzyme. Assays for human cathepsins B, H, and L were carried out with enzyme, purchased from Athens Research and Technology, Inc., prepared from human liver tissue. Standard assay conditions for the determination of kinetic constants used a fluorogenic peptide substrate, typically (5S,8S)-13-amino-5-benzyl-13-imino-3-methylene-N-(4-methyl-2-oxo-2H-chromen-7-yl)-6-oxo-1-phenyl-2-oxa-4,7,12triazatridecane-8-carboxamide (Cbz-Phe-Arg-AMC), and were determined in 100 mM sodium acetate at pH 5.5 containing 10 mM dithiothreitol and 120 mM sodium chloride. […]
# (§2) All assays contained 10% dimethyl sulfoxide. […] Product fluorescence (excitation at 360 nm; emission at 440 nm, (except cathepsin H which used excitation at 340 nm; emission at 420 nm)) was monitored with a PerSeptive Biosystems Cytofluor II fluorescence plate reader. […]
# (§3) Potential inhibitors were evaluated using the progress curve method. […] For those compounds whose progress curves were linear, the enzymatic activity (RATE) was plotted against the concentration of test compound, including inhibitor concentration of zero ([I]=0), and the IC50 determined from a fit of equation 1 to the data, RATE=Vmax/(1+([I]/IC50)) (1) where Vmax is the best fit estimate of the maximal enzymatic activity. […]
# [2] = biological target: human cathepsin S (Homo sapiens, UniProt P25774); test: Cathepsin S inhibition assay, human recombinant enzyme, Cbz-Val-Val-Arg-AMC; settings: Table 2, human cathepsin S; read-out: h Cat S IC50
# Method: as §1, §2, §3
# [3] = biological target: T1, rat cathepsin K (Rattus norvegicus, UniProt O35186); test: Cathepsin K inhibition assay, rat recombinant enzyme, fluorogenic substrate Cbz-Phe-Arg-AMC; settings: Table 2, rat cathepsin K; read-out: r Cat K IC50
# T1 construct: The proform of cathepsin K was converted to mature cathepsin K by brief exposure to pH 4; made in house; host or cells: baculovirus; Trichoplusia ni High Five cells (virus raised in Sf-9)
# T1 sequence (O35186 115-329): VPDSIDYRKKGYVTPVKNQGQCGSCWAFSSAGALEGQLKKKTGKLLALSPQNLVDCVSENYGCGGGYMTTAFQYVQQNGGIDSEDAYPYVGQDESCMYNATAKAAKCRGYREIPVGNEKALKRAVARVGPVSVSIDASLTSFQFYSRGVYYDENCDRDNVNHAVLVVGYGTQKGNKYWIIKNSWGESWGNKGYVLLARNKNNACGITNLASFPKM
# Method: as §1, §2
# Protein Purification: Media (human and rat) were filtered through a Whatman 3 filter, and then loaded onto a 25 mL. […] The column was washed until the absorbance reached the baseline value, and then the protein was eluted with a linear gradient from 0-2 M sodium chloride in the equilibration buffer. Column fractions were analyzed by SDS-PAGE, N-terminal sequencing, and mass spectrometry. […]
# Sequence of human cathepsin S (P25774 115-331): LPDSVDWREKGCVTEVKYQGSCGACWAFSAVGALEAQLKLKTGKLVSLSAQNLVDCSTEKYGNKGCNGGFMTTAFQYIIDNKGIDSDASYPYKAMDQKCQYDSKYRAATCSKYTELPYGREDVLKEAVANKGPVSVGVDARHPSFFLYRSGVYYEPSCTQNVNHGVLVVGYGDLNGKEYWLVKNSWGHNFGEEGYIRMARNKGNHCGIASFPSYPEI
Compound,IC50 [1] [nM],IC50 [2] [nM],IC50 [3] [nM]
"CCCC[C@H](NC(=O)O[C@@H]1CN(C(=O)Nc2ccc(C(F)(F)F)cc2)CC1(C)C)C(=O)C(=O)Nc1ccn[nH]1 [Example 71, (3S)-4,4-dimethyl-1-{[4-(trifluoromethyl)anilino]carbonyl}pyrrolidinyl (1S)-1-[oxo(1H-pyrazol-5-ylamino)acetyl]pentylcarbamate]",100 to 1000,1 to 10,10 to 100
"CCCC[C@H](NC(=O)O[C@@H]1CN(c2nnc(C(F)(F)F)s2)CC1(C)C)C(=O)C(=O)Nc1ccn[nH]1 [Example 82, (3S)-4,4-Dimethyl-1-[5-(trifluoromethyl)-1,3,4-thiadiazol-2-yl]pyrrolidinyl-(1S)-1-[oxo(1H-pyrazol-5-ylamino)acetyl]pentylcarbamate]",100 to 1000,10 to 100,10 to 100
